# Results as given in US11285156B2, “Substituted piperazines as KRAS G12C inhibitors” (Amgen Inc., priority 2018, dated 2022).
# Read-outs that look alike come from different tables or passages of the source.
# Key:
# [1] = system: Phosphorylation of ERK1/2 in MIA PaCa-2 cells; test: Phospho-ERK1/2 MSD assay in MIA PaCa-2 cells; assay type: cell-based; conditions: read-out: p-ERK IC50 (2 h, MiaPaCa-2; μM), 2 h compound treatment, MIA PaCa-2 cells, EGF stimulated
# Outline: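 Phospho-ERK1/2 measured by MSD electrochemiluminescence kit in RIPA lysates of MIA PaCa-2 cells. Cells were treated with compound titrations for 2 or 4 h at 37 °C, 5% CO2, followed by a 10 min pulse of 10 ng/mL EGF.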
# [2] = system: Phosphorylation of ERK1/2 in A549 cells; test: Phospho-ERK1/2 MSD assay in A549 cells; assay type: cell-based; conditions: read-out: p-ERK IC50 (2 h, A549; μM), 2 h compound treatment, A549 cells, EGF stimulated
# Outline: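 MSD electrochemiluminescent read-out of phospho-ERK1/2 in RIPA lysates. Cells in RPMI 1640 with 10% FBS received titrated compound for 2 or 4 h, then 10 ng/mL EGF for 10 min before ice-cold PBS wash and lysis.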
# [3] = target: GDP-bound KRAS protein (aa 1-169), containing both G12C and C118A amino acid substitutions (Homo sapiens (Human), UniProt P01116, C118A/G12C); test: Coupled nucleotide exchange assay (SOS-mediated nucleotide exchange, AlphaScreen); assay type: biochemical; conditions: 5 min compound pre-incubation; for IC50: read-out: Coupled exchange IC50 (5 min; μM)
# Chain of GDP-bound KRAS protein (aa 1-169), containing both G12C and C118A amino acid substitutions (P01116 other isoform, or with tags, fused parts or gaps G12C/C118A): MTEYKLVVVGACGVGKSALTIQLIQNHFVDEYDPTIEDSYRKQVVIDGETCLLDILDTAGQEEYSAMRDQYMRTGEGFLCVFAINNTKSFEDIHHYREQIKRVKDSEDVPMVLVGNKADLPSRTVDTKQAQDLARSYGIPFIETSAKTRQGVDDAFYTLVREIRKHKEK
SMILES,IC50 [1],"IC50 ([2]; Homo sapiens, A549, 2 h)",IC50 [3],"IC50 ([1]; Homo sapiens, MIA PaCa-2, 2 h)",Coupled exchange IC50 (5 min; μM) [3],IC50 [2]
"C=CC(=O)N1C[C@H](C)N(c2nc(=O)n(-c3c(N(C)C)ccnc3C(C)C)c3nc(-c4c(F)cccc4NC(=O)CC)c(Cl)cc23)C[C@H]1C (single isomer, unassigned) [Example 122-2-2]",0.63 µM,> 7.5 µM,0.088 µM,,,
"C=CC(=O)N1C[C@H](C)N(c2nc(=O)n(-c3c(N(C)C)ccnc3C(C)C)c3nc(-c4c(F)cccc4NC(=O)C4CC4)c(Cl)cc23)C[C@H]1C (single isomer, unassigned) [Example 122-3-2]",,> 7.5 µM,0.179 µM,0.145 µM,,
"C=CC(=O)N1[C@H](C)CN(c2nc(=O)n(-c3c(C)cc(N)nc3C(C)C)c3nc(-c4c(O)cccc4F)c(F)cc23)C[C@@H]1C (single isomer, unassigned) [Example 123-2]",,> 7.5 µM,0.4 µM,0.26 µM,,
"C=CC(=O)N1[C@H](C)CN(c2nc(=O)n(-c3c(C)cc(N)nc3C(C)C)c3nc(-c4c(N)cccc4F)c(F)cc23)C[C@@H]1C (single isomer, unassigned) [Example 123-6]",0.133 µM,> 7.5 µM,0.231 µM,,,
"C=CC(=O)N1C[C@H](C)N(c2nc(=O)n(-c3c(C(C)C)ccnc3C(C)C)c3nc(-c4ccccc4C)c(Cl)cc23)C[C@H]1C (single isomer, unassigned) [Example 124-2]",,> 7.5 µM,0.033 µM,0.032 µM,,
"C=CC(=O)N1C[C@H](C)N(c2nc(=O)n(-c3c(C(C)C)ccnc3C(C)C)c3nc(-c4ccccc4C(F)(F)F)c(Cl)cc23)C[C@H]1C (single isomer, unassigned) [Example 124-3]",,> 7.5 µM,0.028 µM,0.032 µM,,
"C=CC(=O)N1C[C@H](C)N(c2nc(=O)n(-c3c(C(C)C)ccnc3C(C)C)c3nc(-c4c(O)cccc4F)c(Cl)cc23)C[C@H]1C (single isomer, unassigned) [Example 124-4]",,> 7.5 µM,0.022 µM,0.016 µM,,
"C=CC(=O)N1C[C@H](C)N(c2nc(=O)n(-c3c(C4CC4)ccnc3C(C)C)c3nc(-c4ccccc4C)c(Cl)cc23)C[C@H]1C (single isomer, unassigned) [Example 124-9]",0.169 µM,> 7.5 µM,,,0.122 µM,
"C=CC(=O)N1CCN(c2nc(=O)n(-c3c(C(C)C)ccnc3C(C)C)c3nc(-c4ccccc4C)c(Cl)cc23)[C@@H](C)C1 (single isomer, unassigned) [Example 124-10]",,> 7.5 µM,0.046 µM,0.049 µM,,
"C=CC(=O)N1C[C@H](C)N(c2nc(=O)n(-c3c(C(C)C)ccnc3C(C)C)c3nc(-c4ccccc4C(C)C)c(Cl)cc23)C[C@H]1C (single isomer, unassigned) [Example 125-8]",0.137 µM,,0.113 µM,,,5.05 µM
"C=CC(=O)N1C[C@H](C)N(c2nc(=O)n(-c3c(C4CC4)ccnc3C(C)C)c3nc(-c4ccccc4C)c(Cl)cc23)C[C@H]1C (single isomer, unassigned) [Example 125-9]",0.048 µM,,,,0.035 µM,> 7.5 µM
"C=CC(=O)N1CCN(c2nc(=O)n(-c3c(C(C)C)ccnc3C(C)C)c3nc(-c4ccccc4C)c(Cl)cc23)[C@@H](C)C1 (single isomer, unassigned) [Example 125-10]",0.068 µM,,0.032 µM,,,> 7.5 µM
"C=CC(=O)N1CCN(c2nc(=O)n(CC(C)(C)C)c3nc(-c4ccccc4F)c(Cl)cc23)CC1CC#N (single isomer, unassigned) [Example 145-1-1, 2-[4-[6-Chloro-1-(2,2-dimethylpropyl)-7-(2-fluorophenyl)-2-oxo-pyrido[2,3-d]pyrimidin-4-yl]-1-prop-2-enoyl-piperazin-2-yl]acetonitrile]",1.3 µM,,1.71 µM,,,5.53 µM
"C=CC(=O)N1CCN(c2nc(=O)n(CC(C)(C)C)c3nc(-c4ccccc4F)c(Cl)cc23)CC1CC#N (single isomer, unassigned) [Example 145-1-2, 2-[4-[6-Chloro-1-(2,2-dimethylpropyl)-7-(2-fluorophenyl)-2-oxo-pyrido[2,3-d]pyrimidin-4-yl]-1-prop-2-enoyl-piperazin-2-yl]acetonitrile]",1.05 µM,,1.15 µM,,,3.94 µM
"C=CC(=O)N1C[C@H](C)N(c2nc(=O)n3c4nc(c(Cl)cc24)-c2ccccc2C/C=C\Cc2cccc(C(C)C)c2-3)C[C@H]1C (single isomer, unassigned) [Example 146-2-2]",,5.48 µM,0.061 µM,0.096 µM,,
"C=CC(=O)N1C[C@H](C)N(c2nc(=O)n3c4nc(c(Cl)cc24)-c2ccccc2C/C=C/Cc2ccccc2-3)C[C@H]1C (single isomer, unassigned) [Example 146-3-2]",,> 7.5 µM,4.4 µM,1.05 µM,,

SMILES,IC50 [1],"IC50 ([2]; Homo sapiens, A549, 2 h)",IC50 [3],"IC50 ([1]; Homo sapiens, MIA PaCa-2, 2 h)",Coupled exchange IC50 (5 min; μM) [3],IC50 [2]
"C=CC(=O)N1C[C@H](C)N(c2nc(=O)n3c4nc(c(Cl)cc24)-c2ccccc2C/C=C\Cc2ccccc2-3)C[C@H]1C (single isomer, unassigned) [Example 146-3-4]",1.26 µM,,7.96 µM,,,> 7.5 µM
"C=CC(=O)N1C[C@H](C)N(c2nc(=O)n(-c3c(C)cc(CC)nc3C(C)C)c3nc(-c4ccccc4F)c(Cl)cc23)C[C@H]1C (single isomer, unassigned) [Example 166-1]",,> 7.5 µM,,0.118 µM,0.049 µM,
"C=CC(=O)N1CCN(c2nc(=O)n(-c3c(C)cc(N)nc3C(C)C)c3nc(-c4ccccc4F)c(Cl)cc23)[C@@H](C)C1 (single isomer, unassigned) [Example 183-2]",,> 7.5 µM,0.058 µM,0.043 µM,,
"C=CC(=O)N1C[C@H](C)N(c2nc(=O)n(-c3c(N)ncnc3C(C)C)c3nc(-c4ccccc4F)c(Cl)cc23)C[C@H]1C (single isomer, unassigned) [Example 189-1]",,> 7.5 µM,,0.072 µM,0.036 µM,
"C=CC(=O)N1C[C@H](C)N(c2nc(=O)n(-c3c(C)nc(Cl)nc3C(C)C)c3nc(-c4ccccc4F)c(Cl)cc23)C[C@H]1C (single isomer, unassigned) [Example 191-2]",,> 7.5 µM,,0.079 µM,0.079 µM,
"C=CC(=O)N1C[C@H](C)N(c2nc(=O)n(-c3c(C)ncnc3C(C)C)c3nc(-c4ccccc4F)c(Cl)cc23)C[C@H]1C (single isomer, unassigned) [Example 194-1]",,> 7.5 µM,,0.033 µM,0.067 µM,
"C=CC(=O)N1C[C@H](C)N(c2nc(=O)n(-c3c(C)nc(N(C)C)nc3C(C)C)c3nc(-c4ccccc4F)c(Cl)cc23)C[C@H]1C (single isomer, unassigned) [Example 196]",,> 7.5 µM,,0.097 µM,0.048 µM,
"C=CC(=O)N1C[C@H](C)N(c2nc(=O)n(-c3c(C)nc(Br)nc3C(C)C)c3nc(-c4ccccc4F)c(Cl)cc23)C[C@H]1C (single isomer, unassigned) [Example 197-2]",,> 7.5 µM,,0.091 µM,0.01 µM,
"C=CC(=O)N1C[C@H](C)N(c2nc(=O)n(-c3c(C)nc(C4CC4)nc3C(C)C)c3nc(-c4ccccc4F)c(Cl)cc23)C[C@H]1C (single isomer, unassigned) [Example 198]",,5.96 µM,,0.136 µM,0.075 µM,
"C=CC(=O)N1C[C@H](C)N(c2nc(=O)n(-c3c(C)nc(CC)nc3C(C)C)c3nc(-c4ccccc4F)c(Cl)cc23)C[C@H]1C (single isomer, unassigned) [Example 199]",,> 7.5 µM,,0.087 µM,0.132 µM,
"C=CC(=O)N1C[C@H](C)N(c2nc(=O)n(-c3c(C)nc(F)nc3C(C)C)c3nc(-c4ccccc4F)c(Cl)cc23)C[C@H]1C (single isomer, unassigned) [Example 200]",,> 7.5 µM,,0.094 µM,0.03 µM,
"C=CC(=O)N1C[C@H](C)N(c2nc(=O)n(-c3c(C)nc(C(=C)C)nc3C(C)C)c3nc(-c4ccccc4F)c(Cl)cc23)C[C@H]1C (single isomer, unassigned) [Example 201]",,5.05 µM,,0.205 µM,0.075 µM,
"C=CC(=O)N1C[C@H](C)N(c2nc(=O)n(-c3c(C)nc(C=C)nc3C(C)C)c3nc(-c4ccccc4F)c(Cl)cc23)C[C@H]1C (single isomer, unassigned) [Example 202]",,> 7.5 µM,,0.075 µM,0.071 µM,
"C=CC(=O)N1C[C@H](C)N(c2nc(=O)n(-c3c(C)nc(C(C)C)nc3C(C)C)c3nc(-c4ccccc4F)c(Cl)cc23)C[C@H]1C (single isomer, unassigned) [Example 203]",,> 7.5 µM,,0.243 µM,0.223 µM,
"C#Cc1nc(C)c(-n2c(=O)nc(N3C[C@@H](C)N(C(=O)C=C)C[C@@H]3C)c3cc(Cl)c(-c4ccccc4F)nc32)c(C(C)C)n1 (single isomer, unassigned) [Example 204]",,3.01 µM,,0.091 µM,0.066 µM,
